Assay results published in patent publication US5670538A, “Use of prodelphinidins for obtaining medicaments intended for the treatment of arthrosis” (Laboratoires Dolisos, priority 1992, dated 1997).

Assays:
[1] = Antilipoperoxidizing activity (gamma irradiation, linoleic acid substrate, pentane); type: biochemical; details: for % inhibition of pentane release from linoleic acid (lipid peroxidation): Substrate: Linoleic acid, relative to the controls
Procedure: 9. Antilipoperoxidizing activity
Similar to the preceding anti-radical method but where the KMB is replaced by linoleic acid (C18: 2), the gamma radiation releases pentane which is analyzed. The height of the pentane peak is proportional to the quantity free of radicals formed in the medium.

[2] = Production of OH° hydroxyl radicals (gamma irradiation, KMB substrate, ethylene by gas chromatography); type: biochemical; details: for % inhibition of the production of hydroxyl radicals: Substrate: KMB, relative to the controls
Procedure: 8. Production of OH° hydroxyl radicals
The products are dissolved in 10 ml flasks at the required concentration in phosphate buffer: 6.6.10^-2 M, pH 7.4 in the presence of alpha keto methiolbutyric acid (10^-3 M: KMB). After the flasks have been hermetically sealed, the samples are irradiated with gamma rays provided by a ^137 Cs source.
The OH° radicals produced by the gamma radiation react with the KMB to produce the ethylene detected by a gas chromatograph. The height of the ethylene peak is proportional to the quantity of free radicals formed in the medium (Weis et al., 1978).

[3] = system: human articular chondrocytes; assay: Radioimmunoassay of type II collagen (coll. II) produced in tridimensional culture of human chondrocytes; type: cell-based
From the text: The model used for testing the proanthocyanidols, namely the tridimensional culture of human chondrocytes allows chondrorepair to be quantified by the production of matrix substances: type II collagen, proteoglycans, and chondroresorption by the reduction in the levels of prostaglandin E2 and of OH° and O°2 type free radicals produced.
1. Tridimensional culture of human chondrocytes
The technique used has been described in detail (Bassleer et al., 1986).
Briefly, human articular chondrocytes are cultivated in DMEM (Dulbecco's Modification of Eagle's Medium--ICN--Gand, Belgium) with either Ultroser G 1% (GIBCO, Gand, Belgium) or 10% of foetal calf serum (ICN--Gand--Belgium), and 50 μg of ascorbic acid/ml added to it. The cartilage originates from the apparently normal zone of heads of human femur suffering from arthrosis, immediately after an operation carried out to insert a total hip prosthesis; it can also originate from the head of a healthy femur, but which has undergone a traumatism and has had to be replaced. This cartilage is then digested by clostridial collagenase 1 mg/ml (Boehringer-Mannheim, Germany) in a buffer (NaCl 120 mM, CaCl2 1 mM, KCl 5 mM, KH2 PO4 1 mM, NaHCO3 25 mM, glucose 2 mM and Hepes 30 mM, pH 7.4) for 24 hours. After 6 successive washings and centrifugations, the chondrocytes, isolated from their matrix, are cultured in flasks (10^6 cells/2 ml of culture medium) placed on a gyrator (10 rpm). The cultures are kept at 37° C. in an atmosphere of air 95%-CO2 5% (Bassleer et al., 1986). Cultivated under these conditions, after 4 to 5 days the chondrocytes form a tridimensional cluster in each flask. These clusters, which at first have a flocculent appearance, then tend to condense during the culture. After two weeks, their diameter is, in general, from 1 to 2 mm.
The fresh weight of the clusters increases with the duration of the culture, above all during the few first days.
3. Radioimmunoassay of type II collagen (coll. II)
The method for the radioimmunoassay of coll. II has been described in detail (Henrotin et al., 1990). The coll. II is extracted from human articular cartilage according to the technique described by Herbage et al. (1977). The antiserum against coll. II was obtained from rabbits according to the technique of Vaitukaitis et al. (1971).
The assay is carried out by sequential saturation. In the first instance, the radioimmunoassay is carried out in a 0.3 ml volume consisting of 0.2 ml of incubation buffer (PBS-50 mM PO4, 300 mM NaCl, 5 g/l BSA (W/V), 6.7 mM sodium azide, pH 7.4) containing the reference coll. II (0.5 to 500 ng) or the sample to be assayed and 0.1 ml of anti-coll. II antiserum from guinea pigs diluted to 1/5000 (24 hours at 4° C.). In the second instance, 0.1 ml of ^125 I-coll. II tracer labelled according to the iodogenic technique (Salacynski et al., 1979 and diluted so as to obtain 20,000 cpm/0.1 ml) is added. After 24 hours at 4° C., the collagen-antibody complexes are separated from the free radioactive coll. II by the double antibody system (Franchimont et al. 1983). Sequential saturation gives a sensitivity of 3 ng/tube. The accuracy of the method is 10%. The coefficients of the intra- and inter assay variation are 10% and 20% respectively.
The assay is specific to human articular type II collagen.
No cross reaction is obtained with bovine collagen of type I, III or IV.
The culture media are stored at -20° C. in the presence of enzymatic inhibitors (Oegema et al., 1975). These media are assayed by the radio immunological method without any treatment beforehand. The chondrocyte clusters are washed and dissociated with ultrasonics according to the method described for the assay of the PGs. After centrifugation (1500 rpm, 10 minutes), the residue is extracted using 500 mM acetic acid under agitation for 24 hours at 4° C. The supernatant of the homogenate and the extract of the residue are mixed together and assayed after equilibration at pH 7.4 using 4M NaOH.
The recovery of coll. […]

SMILES: Oc1cc(O)c2c(c1)O[C@H](c1cc(O)c(O)c(O)c1)[C@@H](O)[C@@H]2c1c(O)cc(O)c2c1O[C@H](c1cc(O)c(O)c(O)c1)[C@@H](O)[C@@H]2c1c(O)cc(O)c2c1O[C@H](c1cc(O)c(O)c(O)c1)[C@@H](O)C2 [Substance Ic, GC-(4 alpha→8) GC-(4 a→8)-GC]
- % inhibition of pentane release from linoleic acid (lipid peroxidation) ([1]; 10^-3 M): 91%
- % inhibition of pentane release from linoleic acid (lipid peroxidation) ([1]; 10^-4 M): 40%
- % inhibition of pentane release from linoleic acid (lipid peroxidation) ([1]; 10^-5 M): 0%
- Production of free radicals from linoleic acid, effect in words ([1]; Table 23): significantly inhibits
- % inhibition of the production of hydroxyl radicals ([2]; 10^-3 M): 74%
- % inhibition of the production of hydroxyl radicals ([2]; 10^-4 M): 39%
- % inhibition of the production of hydroxyl radicals ([2]; 10^-5 M): 20%
- Production of free radicals from KMB, effect in words ([2]; Table 22): significantly inhibits
- Average concentrations (m ± SD) of type II collagen in the clusters of chondrocytes at the end of 12 days of culture ([3]; 1% Ultroser G, 1 μg/ml): 81 ± 6 ng per μg of DNA
- Collagen II in the clusters over 12 days, effect in words ([3]; 1% Ultroser G, 1 μg/ml): stimulant
- Cumulative release of coll.II over 12 days, Abs ([3]; 1% Ultroser G, 1 μg/ml): 256 ng/μg DNA/12 days
- Type II collagen released in the culture medium, effect in words ([3]; 1% Ultroser G, 1 μg/ml): significant effect
- Average concentrations (m ± SD) of type II collagen in the clusters of chondrocytes at the end of 12 days of culture ([3]; 1% Ultroser G, 10 μg/ml): 94 ± 7 ng per μg of DNA
- Cumulative release of coll.II over 12 days, Abs ([3]; 1% Ultroser G, 10 μg/ml): 292 ng/μg DNA/12 days
- Average concentrations (m ± SD) of type II collagen in the clusters of chondrocytes at the end of 12 days of culture ([3]; 1% Ultroser G, 100 μg/ml): 121 ± 13 ng per μg of DNA
- Cumulative release of coll.II over 12 days, Abs ([3]; 1% Ultroser G, 100 μg/ml): 337 ng/μg DNA/12 days
- Coll. II released in the culture medium ([3]; 1% Ultroser G, culture time 0-4 days, 1 μg/ml): 149.4 ± 8.7 ng/μg DNA/96 h
- Coll. II released in the culture medium ([3]; 1% Ultroser G, culture time 0-4 days, 10 μg/ml): 162 ± 11 ng/μg DNA/96 h
- Coll. II released in the culture medium ([3]; 1% Ultroser G, culture time 0-4 days, 100 μg/ml): 182 ± 5.6 ng/μg DNA/96 h
- Coll. II released in the culture medium ([3]; 1% Ultroser G, culture time 0-8 days (so in the source), 1 μg/ml): 65.8 ± 7.4 ng/μg DNA/96 h
- Coll. II released in the culture medium ([3]; 1% Ultroser G, culture time 0-8 days (so in the source), 10 μg/ml): 70.5 ± 7.1 ng/μg DNA/96 h
- Coll. II released in the culture medium ([3]; 1% Ultroser G, culture time 0-8 days (so in the source), 100 μg/ml): 93.8 ± 10.5 ng/μg DNA/96 h
- Coll. II released in the culture medium ([3]; 1% Ultroser G, culture time 0-12 days (so in the source), 1 μg/ml): 41.2 ± 4.6 ng/μg DNA/96 h
- Coll. II released in the culture medium ([3]; 1% Ultroser G, culture time 0-12 days (so in the source), 10 μg/ml): 50.6 ± 4.2 ng/μg DNA/96 h
- Coll. II released in the culture medium ([3]; 1% Ultroser G, culture time 0-12 days (so in the source), 100 μg/ml): 61.1 ± 5.2 ng/μg DNA/96 h
- activity at 1 µg/mL ([3]; Homo sapiens, Chondrocyte, 288 h, 1% Ultroser G, 1 μg/ml, control = 100, read-out: Cumulative release of coll.II over 12 days, %): 134%
- activity at 10 µg/mL ([3]; Homo sapiens, Chondrocyte, 288 h, 1% Ultroser G, 10 μg/ml, control = 100, read-out: Cumulative release of coll.II over 12 days, %): 153%
- activity at 100 µg/mL ([3]; Homo sapiens, Chondrocyte, 288 h, 1% Ultroser G, 100 μg/ml, control = 100, read-out: Cumulative release of coll.II over 12 days, %): 176%
- Type II collagen in the culture media, effect in words ([3]; foetal calf serum, 10 and 100 μg/ml): increases
- Coll. II released in the culture medium ([3]; foetal calf serum, Table 18, 0-4 days, 10 μg/ml): 44.1 ± 6.98 ng/μg DNA/96 H
- Coll. II released in the culture medium ([3]; foetal calf serum, Table 18, 0-4 days, 100 μg/ml): 70.7 ± 10.3 ng/μg DNA/96 H
- Coll. II released in the culture medium ([3]; foetal calf serum, Table 18, 4-8 days, 10 μg/ml): 33.5 ± 3.71 ng/μg DNA/96 H
- Coll. II released in the culture medium ([3]; foetal calf serum, Table 18, 4-8 days, 100 μg/ml): 41.7 ng/μg DNA/96 H
- Coll. II released in the culture medium ([3]; foetal calf serum, Table 19, 0-4 days, 10 μg/ml): 37.9 ± 5.47 ng/μg DNA/96 H
- Coll. II released in the culture medium ([3]; foetal calf serum, Table 19, 0-4 days, 100 μg/ml): 53.2 ± 4.21 ng/μg DNA/96 H
- Coll. II released in the culture medium ([3]; foetal calf serum, Table 19, 4-8 days, 10 μg/ml): 23.3 ± 2.11 ng/μg DNA/96 H
- Coll. II released in the culture medium ([3]; foetal calf serum, Table 19, 4-8 days, 100 μg/ml): 33.5 ng/μg DNA/96 H
- Coll. II in the clusters ([3]; foetal calf serum, experiment 397, 4-8 days, 10 μg/ml): 85.9 ± 14.45 ng/μg DNA
- Coll. II in the clusters ([3]; foetal calf serum, experiment 397, 4-8 days, 100 μg/ml): 109.8 ng/μg DNA
- Collagen II in the clusters, effect in words ([3]; foetal calf serum, experiment 397, 10 and 100 μg/ml): An increase in collagen II is observed
